Consider two molecules from US20130040331A1, “LABEL-FREE METHODS RELATED TO hERG POTASSIUM ION [sequence]” (CORNING INCORPORATED, priority 2009, published 2013).

As usually defined, the EC50 is the concentration needed to bring the measured effect to its halfway point.

The test system of one series is HT29 cells. Nature of the series: Label-free RWG biosensor (Epic) DMR assay, agonism mode, HT29 cells endogenously expressing hERG. The series is classed as cell-based, human. Here is the method: (§1) Epic® wavelength interrogation system (Corning Inc., Corning, N.Y.) was used for whole cell sensing. This system consists of a temperature-control unit, an optical detection unit, and an on-board liquid handling unit with robotics. The detection unit is centered on integrated fiber optics, and enables kinetic measures of cellular responses with a time interval of ˜15 sec.
(§2) Cells were plated in 384-well Epic® cell culture treated plate (Corning Cat#5040) 16-20 hours before assay (15000 cells/well for HEK293 and HEK-hERG cells, 30000 cells/well for HT29 cells). For both HEK-hERG and its parental HEK293 cells, each well was coated with 10 μl 5 μg/ml fibronectin. One hour before assay, cells were washed twice on a BioTek ELx405 Select washer with Hank's Balanced Salt Solution (HBSS) containing 20 mM Hepes. Cells were incubated in 40 μl/well HBSS at 28° C. inside the Epic system for one hour. For each assay, a 2-min baseline was initiated, followed by addition of 10 μl compound solutions (5×) and the cell responses were recorded continuously for one hour.
(§3) All studies were carried out at a controlled temperature (28° C.). At least two independent sets of experiments, each with at least three replicates, were performed. […] All dose-dependent responses were analyzed using non-linear regression method with the GraphPad Prism 5.
(§4) Three different types of cells: human colon cancerous cell line HT-29, HEK293 and its engineered HEK-hERG cell lines were used. HT-29 is known to endogenously express hERG channels. HEK293 is a native cell line without endogenously expressed hERG channels, while HEK-hERG is an engineered HEK293 cells having stably expressed hERG channels. Mallotoxin, a newly discovered hERG activator, was used to activate hERG channels at or near physiological conditions (i.e., 1×HBSS buffered conditions).
(In general: Block of hERG is tested as a sign of cardiac risk.)

Series [1] has as its system mallotoxin DMR signal in HEK-hERG cells. The series is classed as cell-based, human.
Excerpt: (§5) A “molecule modulation index” or like terms is an index to display the ability of the molecule to modulate the biosensor output signals of the panels of markers acting on the panel of cells. The modulation index is generated by normalizing a specific biosensor output signal parameter of a response of a cell upon stimulation with a marker in the presence of a molecule against that in the absence of any molecule.
as §1, §2, §3
(§6) The DMR modulation index was generated by normalizing the mallotoxin DMR signal in either cell line in the presence of compound […] to its corresponding DMR signal in the absence of the compound, and the percentage of modulation was based on the amplitude of the mallotoxin DMR signal at a specific time (−18 min after stimulation for HEK-hERG cells, and ˜50 min after stimulation for HT29 cells, respectively). Mallotoxin is known to display polypharmacology. It is also known to be a protein kinase C (PKC) inhibitor; and PKC is a downstream signaling component of hERG activation. Thus, it would be difficult or almost impossible to assign the mode(s) of action of mallotoxin to be a hERG activator when either cell line is individually assayed with the label-free biosensor (i.e., Epic® system). […] However, combining the primary DMR profiles of a compound across the three cell lines tested with the modulation index of the compound against the mallotoxin responses in both HT29 and […] cells can correctly identify whether the compound is a hERG activator or not. The results shown in FIG. 1 indicate that indeed mallotoxin is a hERG activator; and the activation of hERG can result in detectable biosensor responses in the two hERG expressing cell lines.

Series [2] deals with hERG channel or hERG-associated signaling complex. The experiment in a line: Classification of hERG modulators by label-free biosensor profiles across three cell lines plus mallotoxin modulation index. The series is classed as cell-based, human.
Excerpt: The traditional hERG ion channel assay involves assaying ion flux such as Rb^+ flux using ion absorption assays, or assaying hERG currents directly using patch clamping methods. Traditionally, a molecule which causes increase in Rb^+ flux and/or hERG currents is referred to a hERG activator, while a molecule which inhibits Rb^+ flux and/or hERG currents is referred to a hERG inhibitor. […] These hERG activators may or may not result in detectable biosensor signals in cells, using label-free biosensor cellular assays. A hERG activator that results in a detectable biosensor signal in a hERG expressing cell via hERG or hERG signaling complex is also referred to a label-free biosensor hERG activator.
Disclosed are methods of classifying a molecule for modulating hERG activity, comprising the steps: a. incubating a molecule individually with at least three different types of cells consisting of a native cell endogenously expressing hERG, an engineered cell stably expressing hERG and its parental cell without expressing hERG, and b. monitoring the molecule induced cellular response on each cell type with a label-free biosensor cellular assay,
Also disclosed are methods, further comprising as steps c) incubating a label-free biosensor hERG activator with each cell type in the presence of the molecule, d. monitoring the label-free biosensor hERG activator induced cellular response on each cell type in the presence of the molecule, e. generating a biosensor modulation index of the molecule against the label-free biosensor hERG activator induced biosensor signals in the two hERG expressing cell types.
as §6

A further series deals with HEK-hERG cells. The experiment in a line: Label-free RWG biosensor (Epic) DMR assay, agonism mode, HEK-hERG cells stably expressing hERG. The series is classed as cell-based, human. Here is the method:
as §1, §2, §3, §4

The target of a further series is hERG channel (Homo sapiens, UniProt Q12809). The experiment in a line: Rb+ flux assay using HEK-hERG cells. To be noted: for effect on hERG ion flux (Rb+ flux, FIG. 6): HEK-hERG cells, overall statement, KCl and concentration not specified.
For series [3], the system named is mallotoxin DMR signal in HT29 cells. Nature of the series: DMR modulation index against the mallotoxin DMR signal in HT29 cells. In kind it is cell-based, human.
Excerpt: as §5, §1, §2, §3, §6

[4] abbreviates: 5 mM KCl, compound at 10 or 50 μM.
Setting [5] is: pretreatment with 16 micromolar compound, then 16 micromolar mallotoxin.

The structures appear in SMILES notation.

Sequence of hERG channel (Q12809 whole entry): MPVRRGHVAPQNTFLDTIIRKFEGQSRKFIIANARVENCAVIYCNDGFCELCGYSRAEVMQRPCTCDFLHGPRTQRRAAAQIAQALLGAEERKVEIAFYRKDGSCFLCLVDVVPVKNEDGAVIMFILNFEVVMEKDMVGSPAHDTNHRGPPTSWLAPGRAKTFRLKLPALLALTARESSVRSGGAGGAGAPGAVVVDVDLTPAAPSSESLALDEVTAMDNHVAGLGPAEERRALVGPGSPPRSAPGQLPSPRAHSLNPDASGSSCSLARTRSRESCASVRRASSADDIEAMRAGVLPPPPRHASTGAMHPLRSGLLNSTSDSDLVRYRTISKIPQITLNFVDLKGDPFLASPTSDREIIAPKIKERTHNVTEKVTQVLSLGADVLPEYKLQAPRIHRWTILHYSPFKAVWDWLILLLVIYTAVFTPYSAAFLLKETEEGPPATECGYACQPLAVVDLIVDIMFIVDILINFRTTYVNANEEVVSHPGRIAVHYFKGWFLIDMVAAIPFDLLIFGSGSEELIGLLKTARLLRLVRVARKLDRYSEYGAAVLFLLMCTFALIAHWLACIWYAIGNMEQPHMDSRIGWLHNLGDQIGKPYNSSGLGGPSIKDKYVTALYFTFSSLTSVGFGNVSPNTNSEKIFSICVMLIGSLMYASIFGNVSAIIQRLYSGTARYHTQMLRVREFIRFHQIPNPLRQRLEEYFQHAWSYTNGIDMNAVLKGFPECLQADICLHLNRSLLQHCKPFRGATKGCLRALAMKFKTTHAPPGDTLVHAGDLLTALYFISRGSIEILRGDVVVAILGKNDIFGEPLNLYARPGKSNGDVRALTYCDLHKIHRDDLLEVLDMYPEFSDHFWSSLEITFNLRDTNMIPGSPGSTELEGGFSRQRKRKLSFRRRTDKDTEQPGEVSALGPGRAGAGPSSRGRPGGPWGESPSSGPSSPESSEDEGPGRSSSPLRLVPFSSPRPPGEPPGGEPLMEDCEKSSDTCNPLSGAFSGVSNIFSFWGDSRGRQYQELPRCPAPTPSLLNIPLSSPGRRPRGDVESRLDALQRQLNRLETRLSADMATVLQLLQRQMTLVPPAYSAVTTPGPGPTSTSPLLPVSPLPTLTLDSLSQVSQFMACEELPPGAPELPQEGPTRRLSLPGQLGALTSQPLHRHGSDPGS

For the molecule `O=C(O)c1ccccc1Nc1cccc(C(F)(F)F)c1` [flufenamic acid], the “DMR signal in HT29 cells” value in the series on HT29 cells (compound at 10 μM) was “robust DMR signals”. Also, the “score of modulation index in coordination, HEK-hERG coordinate” value in series [1] (10% modulation = 1 score unit) amounted to 1. In addition, in series [1] (compound 10 micromolar, mallotoxin 16 micromolar, amplitude 18 min after stimulation), the “modulation index against mallotoxin in HEK-hERG cells” value was “~+12%”. In addition, the “hERG pathway activity class by label-free biosensor” value in series [2] is “hERG pathway activator”. The “DMR signal in HEK-hERG cells” value with HEK-hERG cells (compound at 10 μM) is listed as “robust DMR signals”. At hERG channel (setting [4]), the “Rb+ signal in HEK-hERG cells” value was “small and dose-dependent increase”. For the same molecule, the “effect on hERG ion flux (Rb+ flux, FIG. 6)” value on hERG channel was “weak hERG ion flux activator”. For the same molecule, the “modulation index against mallotoxin in HT29 cells” value in series [3] (compound 10 micromolar, mallotoxin 16 micromolar, amplitude ~50 min after stimulation) is reported as −90%. The “modulation of the mallotoxin DMR signal in HT29 cells” value in series [3] (compound at 10 micromolar, mallotoxin 16 micromolar) was “selectively attenuated”.

For `CC(=O)c1c(O)c(C)c(O)c(Cc2c(O)c3c(c(C(=O)/C=C/c4ccccc4)c2O)OC(C)(C)C=C3)c1O` [mallotoxin], in the series with HT29 cells (compound at 16 micromolar), the “DMR signal in HT29 cells” value was “robust DMR signal”. Besides, in series [1] (setting [5]), the “modulation of the mallotoxin DMR signal in HEK-hERG cells” value is on record as “completely caused the desensitization”. Besides, the “hERG pathway activity class by label-free biosensor” value in series [2] is recorded as “label-free hERG pathway activator”. Moreover, in the series with HEK-hERG cells (amplitudes at 18 min after stimulation, read-out: apparent EC50 of dose-dependent DMR signal in HEK-hERG cells), the concentration for a half-maximal effect (EC50) was roughly 25 µM. For the same molecule, in the series on HEK-hERG cells (compound at 16 micromolar), the “DMR signal in HEK-hERG cells” value was “robust DMR signal”. Further, the “Rb+ signal in HEK-hERG cells” value at hERG channel (setting [4]) is listed as “significant increase”; on hERG channel (40 mM KCl, compound at 10 μM) it was “obvious increase”. In addition, the “effect on hERG ion flux (Rb+ flux, FIG. 6)” value at hERG channel is on record as “strong hERG ion flux activator”. For the same molecule, in series [3] (setting [5]), the “modulation of the mallotoxin DMR signal in HT29 cells” value is on record as “completely caused the desensitization”.
